pIC50: −log10 of the molar value. Where two headings read alike, the source gives them in different places.
What was measured:
[1] = test system: Pseudomonas aeruginosa ATCC 27853; assay: MIC assay (planktonic growth inhibition, OD600); assay type: cell-based, P. aeruginosa; details: for pIC50 / IC90: Pseudomonas aeruginosa; for pIC50: read-out: P. aeruginosa MIC50; for IC90: read-out: P. aeruginosa MIC90
Procedure: (§1) The exact weighed amount was noted and the volume of solvent to reach a 80 mM dilution calculated. Half of the volume was added first, by adding Tween 80. In a second step, the other half of the volume DMSO was added and the closed tube inverted 5-10 times and then vortexed very thoroughly for at least 30 seconds. If after this procedure unsolved material was still visible, the tube was placed in a shaker at 37° C. at 150 rpm for at least 30 minutes. […] For the MBEC assay (method 1.3) the solution needs to be diluted to a final concentration of 2 mM in 0.9% saline solution and then further diluted to 1 mM, 0.5 mM, 0.25 mM and 0.125 mM in saline. Those dilutions were added as treatment to the 96 well plates with the grown biofilm (see method 3).
(§2) Frozen aliquots of Staphylococcus epidermis ATCC 35984 and Pseudomonas aeruginosa ATCC 27853 were used to inoculate a tryptic soy agar (TSA) plate and incubated overnight at 37° C. After incubation 3-5 well-isolated colonies with the same morphology were selected from the TSA plate and resuspended in 2 mL 0.9% saline solution with 3-6 glass beads and vortexed. The optical density at 600 nm (OD600) of the bacterial suspension was measured with a spectrophotometer (Evolution™ 201/220 UV-Visible Spectrophotometer, Thermo Fisher Scientific) and diluted to an OD600 of 0.0008, which resembles 10^6 CFU/mL.
(§3) The MIC assay was performed in a flat-bottom 96-microtiter plate. 50 μL of MHB-II was added into columns 2-11, and 100 μL to column 12 for sterility control. 100 μL of the 8 mM test compound solution (method 1) was added to column 1. A two-fold dilution series of the solution in MHB-II was achieved by resuspending 50 μL of the 8 mM solution from column 1 to column 2. This step was repeated until column 10. The respective concentration of Tween 80 and DMSO in column 1 was 2.5%, which is two-fold diluted throughout the plate. 50 μL of the bacterial suspension was added to column 1-11. The microtiter plates were sealed with adhesive polyethylene film for sealing microplates (Diversified Biotech) and incubated for 24 h at 37° C. After incubation the OD was measured at 600 nm with the Varioskan (Thermo Fisher Scientific). […] This assay was repeated three times in three independent experiments.

[2] = test system: Staphylococcus epidermis ATCC 35984; assay: MIC assay (planktonic growth inhibition, OD600); assay type: cell-based, S. epidermidis; details: for pIC50: read-out: S. epidermidis MIC50; for IC90: read-out: S. epidermidis MIC90
Procedure: as §1, §2, §3

[3] = test system: Staphylococcus epidermis ATCC 35984 biofilm; assay: MBEC assay (biofilm eradication, CFU log reduction); assay type: cell-based, S. epidermidis; details: for minimal effective concentration: read-out: S. epidermidis MBEC mM with log reduction ≥1
Procedure: as §1
(§4) Frozen aliquots of Staphylococcus epidermis ATCC 35984 and Pseudomonas aeruginosa ATCC 27853 were used to inoculate 20 mL of Tryptic Soy Broth (TSB) in a 100 mL Erlenmeyer flask at 37° C. and 150 rpm and incubated overnight (Infors). The OD600 of the overnight culture was measured with a spectrophotometer (Evolution™ 201/220 UV-Visible Spectrophotometer, Thermo Fisher Scientific) and diluted to an OD600 of 0.2, which resembles 10^8 CFU/mL. The cell suspension of OD600=0.2 was seeded into a U-bottom-shaped 96 well plates by pipetting 100 μL per well in column 1-11, column 12 was filled with 100 μL medium as sterility control. The 96 well plates were sealed with adhesive polyethylene film for sealing microplates and incubated for 48 h at 37° C. at static conditions. After the biofilm growth phase, 100 μL of treatment solutions (method 1) were added to the vials resulting in treatment concentrations of 1 mM, 0.5 mM, 0.25 mM and 0.125 mM and with the respective concentration of Tween 80 and DMSO each at 0.63%, 0.32%, 0.16% and 0.08%. The same concentration was applied to four different wells of the same bacterial strain, resulting in four replicates for each concentration and strain. The treatment was incubated for 20 h at 37° C. at static conditions. After the treatment the supernatant was carefully removed and the well with the biofilm washed carefully for one time with 200 μL 0.9% saline solution. 200 μL saline solution was added and the biofilm was resuspended thoroughly. When fully homogenized then 20 μL was used for the first dilution in 180 μL 0.9% saline solution, which was prepared in a second plate. This dilution was continued until dilution step 10E−5 and 100 μL of the 10E−4 and 10E−5 dilution plated on a TSA plate. The TSA plates were incubated at 37° C. for 24 h. The colonies on the plates were enumerated, the colony forming units per mL of the dispensed biofilm and averages thereof and the log reduction in comparison with the untreated sample from the same wells plate calculated. Reduction of colony forming units goes hand in hand with the thickness of the biofilm and thus with the number bacteria that are present in the biofilm. Therefore, a significant reduction of colony forming units in the biofilm was defined at the value of log reduction ≥1 or more. This assay was repeated two times in two independent experiments)

udder cleft wound = assay: In vivo udder cleft dermatitis test: wound assessment after spray treatment; design: species or system cow; details: for Conclusion (effect on udder cleft wound): over 60 days, all cows of the group
Procedure: An example of a biofilm-related disorder is Udder Cleft Dermatitis (UCD), which relates to a chronic wound. In this Example, di-alkyl thiosulfonates, dialkyl thiosulfinates and di-alkyl disulfides were tested for their effect on cows affected by UCD.
Experiments were performed to examine the effect of various sprays containing water (control), a test compound, or a reference compound (CTC spray, which contains chlorotetracycline hydrochloride, and was obtained from Dechra veterinary products).
0.35 mL of the spray was sprayed on an udder cleft wound per treatment. Treatments took place once a day at t=0, at t=3 days and t=6 days. In Table 6, the assessment qualifications that are used in Table 7, are explained.

[4] = test system: Pseudomonas aeruginosa ATCC 27853 biofilm; assay: MBEC assay (biofilm eradication, CFU log reduction); assay type: cell-based, P. aeruginosa; details: for minimal effective concentration: Pseudomonas aeruginosa, read-out: P. aeruginosa MBEC mM with log reduction ≥1
Procedure: as §1, §4

[5] = test system: Staphylococcus epidermis ATCC 35984 biofilm; assay: MBIC assay (biofilm inhibition, crystal violet); assay type: cell-based, S. epidermidis; details: 48 h incubation, absorbance 540 nm
Procedure: as §1
(§5) Frozen aliquots of Staphylococcus epidermis ATCC 35984 and Pseudomonas aeruginosa ATCC 27853 were used to inoculate a tryptic soy agar (TSA) plate and were incubated overnight at 37° C. After incubation 3-5 well-isolated colonies with the same morphology were selected from the TSA plate and resuspended in 2 mL 0.9% saline solution with 3-6 glass beads and vortexed. The optical density of the bacterial suspension was measured at 600 nm (OD600) with a spectrophotometer (Evolution™ 201/220 UV-Visible Spectrophotometer, Thermo Fisher Scientific) and diluted to an OD600 of 0.2. The MBIC assay was performed in a 96-microtiter plate. 50 μL of TSB was added into columns 2-11, and 100 μL to column 12 for sterility control. 100 μL of the 8 mM test compound solution (method 1) was added to column 1. A two-fold dilution series of the solution in TSB was achieved by resuspending 50 μL of the 8 mM solution from column 1 in column 2. This step was repeated until column 10. The respective concentration of Tween 80 and DMSO in column 1 is at 2.5%, which is two-fold diluted throughout the plate. 50 μL of the bacterial suspension was added to column 1-11. The microtiter plates were sealed with adhesive polyethylene film for sealing microplates (Diversified Biotech) and incubated for 48 h at 37° C. After incubation the supernatant is carefully removed and the well with the biofilm washed for one time with 100 μL 0.9% saline solution. 100 μL 0.1 M HCl was added and incubated for 1 h at room temperature to fix the biofilm. After incubation the HCl was removed and 100 μL crystal violet (0.1% v/v in water) was added and incubated for 30 min at room temperature. The unbound crystal violet was removed and the wells washed one time with 100 μL demineralized water. 100 μL 30% acetic acid was added and incubated for 1 h at 37° C. and 150 rpm. The solution was resuspended and transferred to a flat-bottom 96-well plate and the absorbance measured at 540 nm with the spectrophotometer. This assay was repeated two times in two independent experiments.

[6] = test system: Pseudomonas aeruginosa ATCC 27853 biofilm; assay: MBIC assay (biofilm inhibition, crystal violet); assay type: cell-based, P. aeruginosa; details: 48 h incubation, absorbance 540 nm
Procedure: as §1, §5

[7] = ATCC27853, minimal concentration reducing final OD600 by 50%, 24 h at 37° C.
[8] = ATCC27853, minimal concentration reducing final OD600 by 90%, 24 h at 37° C.
[9] = minimal concentration reducing final OD600 by 50%, 24 h at 37° C.
[10] = minimal concentration reducing final OD600 by 90%, 24 h at 37° C.
[11] = 48 h grown biofilm, 20 h treatment, CFU log reduction vs untreated
[12] = ATCC27853, 48 h grown biofilm, 20 h treatment, CFU log reduction vs untreated

| SMILES | pIC50 [1, 7] | IC90 [1, 8] [µM] | pIC50 [2, 9] | IC90 [2, 10] [µM] | minimal effective concentration [3, 11] [mM] | Conclusion (effect on udder cleft wound) (udder cleft wound) | minimal effective concentration [4, 12] [mM] | S. epidermidis MBIC90 [5] [mM] | P. aeruginosa MBIC90 [6] [mM] | other results |
| --- | --- | --- | --- | --- | --- | --- | --- | --- | --- | --- |
| Fc1ccc(SSc2ccc(F)cc2)cc1 [Bis (4-fluorophenyl) disulfide] | 3.90 | 250 | 4.22 | 60 | > 1 | No effect | > 1 |  |  |  |
| [O-][S+](Cc1ccccc1)SCc1ccccc1 [D-benzyl thiosulfinate, Di-benzyl thiosulfinate] |  |  |  |  |  |  |  | 4 | >4 | P. aeruginosa MIC50 [1, 9]: 60 µM; P. aeruginosa MIC90 [1, 10]: 500 µM; S. epidermidis MIC50 [2, 9]: 30 µM; S. epidermidis MIC90 [2, 10]: 30 µM; S. epidermidis MBEC mM with log reduction ≥1 [3, 11]: 1 mM; P. aeruginosa MBEC mM with log reduction ≥1 [4, 11]: 0.125 mM |
| CCCCS[S+]([O-])CCCC (centres unmarked) [Di-n-butyl thiosulfinate, S-butyl butane-1-sulfinothioate] |  |  |  |  |  | Positive effect |  |  |  | inflammation of the udder cleft wound after treatment (udder cleft wound; immediately after the treatment, later infection reduced and wound healed): fast inflammation reduction |
| c1ccc(SSc2ccccc2)cc1 [Di-phenyl disulfide] | 2.70 | > 4000 | 3.90 | > 4000 | > 1 | No effect | 0.125 |  |  |  |
| CCS[S+]([O-])CC (centres unmarked) [Di-ethyl thiosulfinate, S-ethyl ethanesulfinothioate] |  |  |  |  |  | No effect |  |  |  |  |
| Cc1ccc(S[S+]([O-])c2ccc(C)cc2)cc1 (centres unmarked) [Bis (p-tolyl) thiosulfinate] |  |  |  |  |  |  |  | >4 | >4 | P. aeruginosa MIC50 [1, 9]: 125 µM; P. aeruginosa MIC90 [1, 10]: 250 µM; S. epidermidis MIC50 [2, 9]: 125 µM; S. epidermidis MIC90 [2, 10]: 250 µM; S. epidermidis MBEC mM with log reduction ≥1 [3, 11]: 1 mM; P. aeruginosa MBEC mM with log reduction ≥1 [4, 11]: 1 mM |
| c1ccc(CSSCc2ccccc2)cc1 [Di-benzyl disulfide] |  |  |  |  |  | No effect |  |  |  | pIC50 ([1]; ATCC27853, 24 h): < 2.40; IC90 ([1]; ATCC27853, 24 h): > 4000 µM; pIC50 ([2]; 24 h): < 2.40; IC90 ([2]; 24 h): > 4000 µM; minimal effective concentration ([3]; 20 h): > 1 mM; minimal effective concentration ([4]; ATCC27853, 20 h): > 1 mM |
| Clc1ccc(SSc2ccc(Cl)cc2)cc1 [Bis (4-chlorophenyl) disulfide, Bis(4-chlorophenyl) disulfide] | 4.70 | 30 | 5.00 | 30 | > 1 |  | > 1 | >4 | >4 |  |
| CC(C)S[S+]([O-])C(C)C (centres unmarked) [Di-isopropyl thiosulfinate] |  |  |  |  |  |  |  | >4 | >4 | P. aeruginosa MIC50 [1, 9]: 2000 µM; P. aeruginosa MIC90 [1, 10]: 4000 µM; S. epidermidis MIC50 [2, 9]: 2000 µM; S. epidermidis MIC90 [2, 10]: 2000 µM; S. epidermidis MBEC mM with log reduction ≥1 [3, 11]: 0.5 mM; P. aeruginosa MBEC mM with log reduction ≥1 [4, 11]: 0.125 mM |
| COc1ccc(SSc2ccc(OC)cc2)cc1 [Bis (4-methoxyphenyl) disulfide, Bis(4-methoxyphenyl) disulfide] | < 2.40 | > 4000 | < 2.40 | > 4000 | > 1 | No effect | > 1 |  |  |  |

Further lines, with some results ahead:

| pIC50 [1, 7] | IC90 [1, 8] [µM] | pIC50 [2, 9] | IC90 [2, 10] [µM] | SMILES | minimal effective concentration [3, 11] [mM] | Conclusion (effect on udder cleft wound) (udder cleft wound) | minimal effective concentration [4, 12] [mM] | S. epidermidis MBIC90 [5] [mM] | P. aeruginosa MBIC90 [6] [mM] | other results |
| --- | --- | --- | --- | --- | --- | --- | --- | --- | --- | --- |
| < 2.40 | > 4000 | < 2.40 | > 4000 | CCCCSSCCCC [Di-n-butyl disulfide] | > 1 | No effect | > 1 |  |  |  |
| < 2.40 | > 4000 | < 2.40 | > 4000 | CC(C)SSC(C)C [Di-isopropyl disulfide] | > 1 | No effect | > 1 |  |  |  |

Source: US20240374535A1, “COMPOSITIONS AND METHODS FOR TREATING BIOFILM DISORDERS AND INFECTIONS” (AHV International B.V., priority 2021, published 2024)
